Experimental data as given in ChEMBL document CHEMBL1949579, “2-Arylbenzofuran, flavonoid, and tyrosinase inhibitory constituents of Morus yunnanensis” (J Nat Prod, 2012).

molecular target: T1, Tyrosinase (Agaricus bisporus) (UniProt O42713); assay: Inhibition of mushroom tyrosinase assessed as oxidation of L-dopa at 25 uM by spectrophotometric analysis
T1 sequence (whole entry): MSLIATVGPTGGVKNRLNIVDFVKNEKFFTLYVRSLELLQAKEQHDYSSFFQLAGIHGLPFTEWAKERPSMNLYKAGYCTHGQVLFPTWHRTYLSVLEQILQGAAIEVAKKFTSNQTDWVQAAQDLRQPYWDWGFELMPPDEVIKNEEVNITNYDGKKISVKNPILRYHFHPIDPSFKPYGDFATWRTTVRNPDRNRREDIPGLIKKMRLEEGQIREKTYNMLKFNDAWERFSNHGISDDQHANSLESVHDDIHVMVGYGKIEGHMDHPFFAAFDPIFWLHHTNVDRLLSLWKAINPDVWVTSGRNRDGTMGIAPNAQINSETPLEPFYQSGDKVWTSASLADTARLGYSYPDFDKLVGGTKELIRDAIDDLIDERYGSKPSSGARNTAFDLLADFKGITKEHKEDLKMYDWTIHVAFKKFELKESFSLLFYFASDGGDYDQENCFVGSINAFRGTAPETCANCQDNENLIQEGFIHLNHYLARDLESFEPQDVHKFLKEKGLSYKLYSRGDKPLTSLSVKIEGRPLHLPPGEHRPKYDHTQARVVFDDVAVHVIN

| Compound | inhibition [%] |
| --- | --- |
| CC(C)=CCc1c(O)ccc2c1O[C@H](c1ccc(O)cc1)CC2 | < 50 |
| COc1ccc([C@@H]2CCc3ccc(O)c(CC=C(C)C)c3O2)c(O)c1 | < 50 |
| COc1ccc(CCC(c2ccc(O)cc2O)c2cc([C@@H]3CCc4ccc(OC)c(CC=C(C)C)c4O3)c(O)cc2O)c(O)c1CC=C(C)C (some centres not stated) | < 50 |
| COc1ccc(CCC(c2ccc(O)cc2O)c2cc([C@H]3CCc4ccc(OC)c(CC=C(C)C)c4O3)c(O)cc2O)c(O)c1CC=C(C)C (some centres not stated) | < 50 |

molecular target: T2, Tyrosinase (Agaricus bisporus, UniProt O42713); assay: Inhibition of mushroom tyrosinase assessed as oxidation of L-dopa by spectrophotometric analysis
T2 sequence (O42713 whole entry): T1 sequence (whole entry)

| Compound | IC50 [nM] |
| --- | --- |
| COc1ccc2c(c1C/C=C(\C)CO)O[C@H](c1ccc(O)cc1O)CC2 [MORUSYUNNANSINS E] | 1430 |
| CC(C)=CCc1c(O)ccc2c1O[C@H](c1ccc(O)cc1O)CC2 [MORUSYUNNANSINS F] | 150 |
| COc1ccc2c(c1CCO)O[C@@H](c1ccc(O)cc1O)CC2 | 120 |
